Source: patent US20070244079A1, “PREVENTIVE/REMEDY FOR ALLERGIC DISEASES” (Ajinomoto Co., Inc., priority 2004, published 2007)

How the values were obtained:
[1] = system: ovalbumin-induced asthma model mice; assay: Ovalbumin-induced asthma model mice: eosinophil count in BAL Fluid; format: in vivo, Balb/c mice
[2] = system: ovalbumin-induced pulmonary fibrosis model mice; assay: Ovalbumin-induced pulmonary fibrosis model mice: airway resistance (Penh) after methacholine; format: in vivo, Balb/c mice; conditions: valine 15 g/L, dexamethasone 10 mg %, inhalation 40 minutes per day, day 21 to day 42, no treatment 4.0
Description: Ovalbumin-induced pulmonary fibrosis model mice were induced by a conventional method using Balb/c mice, and the lung function reduction suppressive effect of coadministration of L-valine (free form) and dexamethasone by inhalation was investigated. 24 hours after antigen exposure on day 42, the pulmonary fibrosis model mice were allowed to inhale methacholine, which is a bronchial constriction inducer, and airway resistance (Penh) was measured using a Buxco whole body plethysmography. Valine (15 g/L) and dexamethasone (10 mg %) were aerosolized with a nebulizer and coadministered by inhalation (40 minutes per day) on consecutive days from day 21 to day 42.

[3] = system: ovalbumin-induced pulmonary fibrosis model mice; assay: Ovalbumin-induced pulmonary fibrosis model mice: hydroxyproline content in lung tissue; format: in vivo, Balb/c mice; conditions: valine 15 g/L, dexamethasone 10 mg %, inhalation 40 minutes per day, day 21 to day 42; no treatment 28.7%
Description: Ovalbumin-induced pulmonary fibrosis model mice were induced by a conventional method using Balb/c mice, and the pulmonary fibrosis suppressive effect of coadministration of L-valine (free form) and dexamethasone by inhalation was investigated. 24 hours after antigen exposure on day 42, the lungs were extirpated from the pulmonary fibrosis model mice, and the hydroxyproline content in lung tissue was measured as an index of the degree of fibrosis. Valine (15 g/L) and dexamethasone (10 mg %) were aerosolized with a nebulizer and coadministered by inhalation (40 minutes per day) on consecutive days from day 21 to day 42. The results are expressed as increments (%) of the hydroxyproline content in each test group compared to the hydroxyproline content in the lung tissues from normal mice.

[4] = system: Ovalbumin-immunized Balb/c mice; assay: Cytokine productivity of isolated immune cells (lung macrophages co-cultured with splenocytes) from ovalbumin-immunized mice given valine; format: in vivo; conditions: valine 3 mM free water drinking day 0 to day 11, co-cultured with splenocytes 48 hours, ELISA
Description: Ovalbumin-immunized Balb/c mice were given L-valine (free form), and changes in the cytokine productivity of isolated immune cells were examined, whereby the effect on the Th1/Th2 balance in a living organism's immune system was investigated. After a 3 mM aqueous solution of valine was prepared, it was administered by the free water drinking method from day 0 to day 11. […] On day 11, macrophages were isolated from the lungs and cultured in the presence of 1 mg/mL ovalbumin overnight, after which they were further co-cultured with splenocytes isolated from an ovalbumin-immunized mouse for 48 hours. After the cultivation, cytokines in the culture supernatant were measured by an ELISA method. […] With valine administration, an increase in the Th1 cytokine content and a reduction in the Th2 cytokine content were observed.

[5] = system: ovalbumin-induced asthma model mice; assay: Lung tissue pathology (H/E staining), immune cell infiltration in ovalbumin-induced asthma model mice; format: in vivo, Balb/c mice; conditions: valine 3 mM or ornithine hydrochloride 15 mM, free water drinking day 0 to day 21
Description: After elapse of 24 hours following a third antigen exposure, the lungs were extirpated from the mice and fixed in 10% formalin buffer solution, paraffin sections were prepared, and H/E staining was performed. […] Note that FIG. 7(a) is a lung tissue image of a normal mouse without asthma induction.

[6] = system: ovalbumin-induced asthma model mice; assay: Cytokine concentrations in BAL Fluid (ELISA) of ovalbumin-induced asthma model mice; format: in vivo, Balb/c mice; conditions: 0.6 mM aqueous solution, free water drinking day 0 to day 21
Description: After a 0.6 mM aqueous solution of valine was prepared, it was administered by the free water drinking method from day 0 to day 21. The IFN-γ/IL4 ratio increased from 5.8 for the control group to 8.0 for the valine administration group.

[7] = system: ovalbumin-induced asthma model mice; assay: Airway hypersensitivity test (methacholine, whole body plethysmography) in ovalbumin-induced asthma model mice; format: in vivo, Balb/c mice; conditions: 3 mM aqueous solution, free water drinking day 0 to day 21; methacholine inhalation; asthma model mice 6.61
Description: After elapse of 24 hours following a third antigen exposure, the animals were allowed to inhale methacholine, which is an airway constricting substance, and an airway hypersensitivity test of the ovalbumin-induced asthma mice was performed using a whole body plethysmography. As an index of airway resistance, the Penh value was used. In the ovalbumin-induced asthma model mice, the Penh value was 6.61; in the group receiving a 3 mM aqueous solution of valine administered by the free water drinking method from day 0 to day 21, the Penh value decreased to 3.77.

[8] = 0.6 to 15 mM aqueous solutions, free water drinking day 0 to day 21, 1st of 3 values (respectively), control 33
[9] = 0.6 to 15 mM aqueous solutions, free water drinking day 0 to day 21, 2nd of 3 values (respectively), control 33
[10] = 0.6 to 15 mM aqueous solutions, free water drinking day 0 to day 21, 3rd of 3 values (respectively), control 33

N[C@@H](CO)C(=O)O [serine]
eosinophil count in the BAL Fluid [1, 8]: 29000 µL⁻¹
eosinophil count in the BAL Fluid [1, 9]: 24000 µL⁻¹
eosinophil count in the BAL Fluid [1, 10]: 22000 µL⁻¹

CC[C@H](C)[C@H](N)C(=O)O [isoleucine, L-isoleucine]
eosinophil count in the BAL Fluid ([1]; 0.45 mM aqueous solution, free water drinking day 0 to day 21, control 20): 12000 µL⁻¹

C[C@@H]1C[C@H]2[C@@H]3CCC4=CC(=O)C=C[C@]4(C)[C@@]3(F)[C@@H](O)C[C@]2(C)[C@@]1(O)C(=O)CO [dexamethasone, reference compound]
Penh value (airway resistance) [2]: 4.1
increment of hydroxyproline content in lung tissue compared to normal mice [3]: 15.4%

CC(C)C[C@H](N)C(=O)O [leucine, L-leucine]
eosinophil count in the BAL Fluid ([1]; 0.9 mM aqueous solution, free water drinking day 0 to day 21, control 20): 7000 µL⁻¹

N=C(N)NCCC[C@H](N)C(=O)O [arginine, L-arginine]
eosinophil count in the BAL Fluid ([1]; 3 to 45 mM aqueous solutions, free water drinking day 0 to day 21, 1st of 3 values (respectively), control 45): 26000 µL⁻¹
eosinophil count in the BAL Fluid ([1]; 3 to 45 mM aqueous solutions, free water drinking day 0 to day 21, 2nd of 3 values (respectively), control 45): 25000 µL⁻¹
eosinophil count in the BAL Fluid ([1]; 3 to 45 mM aqueous solutions, free water drinking day 0 to day 21, 3rd of 3 values (respectively), control 45): 19000 µL⁻¹

NCC(=O)O [glycine]
eosinophil count in the BAL Fluid [1, 8]: 32000 µL⁻¹
eosinophil count in the BAL Fluid [1, 9]: 27000 µL⁻¹
eosinophil count in the BAL Fluid [1, 10]: 28000 µL⁻¹

CC(C)[C@H](N)C(=O)O [valine, L-valine]
IL-4 (pg/mL) Mean, culture supernatant [4]: 9.2 pg/mL
IFN-γ (pg/mL) Mean, culture supernatant ([4]; control 147.0): 341.1 pg/mL
Penh value (airway resistance) [2]: 4.0
increment of hydroxyproline content in lung tissue compared to normal mice [3]: 31%
effect on eosinophil count in the BAL Fluid compared to the control group ([1]; 15 mM, free water drinking started at first suction exposure (day 12)): no significant effect
eosinophil count in the BAL Fluid ([1]; 0.12 to 15 mM aqueous solutions, free water drinking day 0 to day 21, 1st of 4 values (respectively), control 36): 26000 µL⁻¹
eosinophil count in the BAL Fluid ([1]; 0.12 to 15 mM aqueous solutions, free water drinking day 0 to day 21, 2nd of 4 values (respectively), control 36): 23000 µL⁻¹
eosinophil count in the BAL Fluid ([1]; 0.12 to 15 mM aqueous solutions, free water drinking day 0 to day 21, 3rd of 4 values (respectively), control 36): 17000 µL⁻¹
eosinophil count in the BAL Fluid ([1]; 0.12 to 15 mM aqueous solutions, free water drinking day 0 to day 21, 4th of 4 values (respectively), control 36): 28000 µL⁻¹
eosinophil count in the BAL Fluid ([1]; 0.6, 3, or 15 g/L aqueous solution, oral by sonde 100 μL/time/animal twice a day, day 0 to day 21): decreased with dependence on the dose
eosinophil count in the BAL Fluid ([1]; 0.6 or 15 g/L aqueous solution, inhalation (nebulizer) once daily 30 minutes, 5 days/week, day 11 to day 21): decreased with dependence on the dose
lung tissue symptoms (immune cell infiltration, hypertrophy of bronchial epithelial cells, mucosa-producing cells, bronchial stenosis) [5]: all of the above-described symptoms were potently suppressed, and no bronchial stenosis was observed
IL-4 in BAL Fluid ([6]; ELISA, control 69.1): 120.7 pg/mL
IFN-γ in BAL Fluid ([6]; ELISA, control 403.8): 970.4 pg/mL
IFN-γ/IL-4 ratio in BAL Fluid ([6]; control 5.8): 8.0
Penh value (index of airway resistance) [7]: 3.77
